Measured values: patent US7902369B2, “Diaryl-substituted five-membered heterocycle derivative” (Banyu Pharmaceutical Co., Ltd., priority 2004, dated 2011)

Key:
[1] = target: T1, human metabotropic glutamate receptor 1a (mGluR1a) (Homo sapiens, UniProt Q13255); assay: mGluR1 inhibiting effect: intracellular calcium concentration (FLIPR) in mGluR1a-expressing CHO cells; type: cell-based; conditions: suppression of calcium increase by 10 μM glutamic acid, test compound added 5 min before agonist
T1 construct: expressed in transfected cells
T1 sequence (Q13255 19-1194): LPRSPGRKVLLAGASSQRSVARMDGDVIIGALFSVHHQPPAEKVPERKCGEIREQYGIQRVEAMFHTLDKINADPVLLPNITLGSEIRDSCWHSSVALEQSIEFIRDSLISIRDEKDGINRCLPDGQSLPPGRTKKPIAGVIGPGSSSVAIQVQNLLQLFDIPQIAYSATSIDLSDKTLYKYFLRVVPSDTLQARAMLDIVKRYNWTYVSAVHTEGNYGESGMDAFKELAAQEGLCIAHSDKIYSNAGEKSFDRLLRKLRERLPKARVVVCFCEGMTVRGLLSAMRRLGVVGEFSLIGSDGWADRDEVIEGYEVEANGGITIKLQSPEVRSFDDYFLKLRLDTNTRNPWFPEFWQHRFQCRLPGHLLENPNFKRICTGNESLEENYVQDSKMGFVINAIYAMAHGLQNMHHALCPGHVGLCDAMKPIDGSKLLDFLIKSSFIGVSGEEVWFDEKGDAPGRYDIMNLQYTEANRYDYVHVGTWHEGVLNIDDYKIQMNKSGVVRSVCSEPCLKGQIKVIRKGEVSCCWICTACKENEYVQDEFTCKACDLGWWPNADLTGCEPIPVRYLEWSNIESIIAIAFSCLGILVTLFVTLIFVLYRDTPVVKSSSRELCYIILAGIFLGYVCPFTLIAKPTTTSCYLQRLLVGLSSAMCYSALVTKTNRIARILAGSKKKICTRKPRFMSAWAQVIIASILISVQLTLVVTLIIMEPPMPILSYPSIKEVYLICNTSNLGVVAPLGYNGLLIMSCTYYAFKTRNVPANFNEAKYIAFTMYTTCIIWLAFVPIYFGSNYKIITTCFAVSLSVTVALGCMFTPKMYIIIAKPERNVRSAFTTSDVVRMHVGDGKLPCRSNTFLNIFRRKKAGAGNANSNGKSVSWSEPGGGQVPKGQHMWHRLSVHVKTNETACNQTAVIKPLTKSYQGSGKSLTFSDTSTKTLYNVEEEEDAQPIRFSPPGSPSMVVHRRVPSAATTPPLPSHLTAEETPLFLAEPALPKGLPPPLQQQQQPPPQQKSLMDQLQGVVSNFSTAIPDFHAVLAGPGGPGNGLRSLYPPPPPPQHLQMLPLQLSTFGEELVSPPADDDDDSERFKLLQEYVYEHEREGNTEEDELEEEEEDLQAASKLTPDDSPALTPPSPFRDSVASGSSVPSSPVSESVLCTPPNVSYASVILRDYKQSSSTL
Procedure: MGlu1 inhibiting effect was measured by using the compound of the present invention.
With the use of Lipofectamine (Gibco BRL), cDNA of human metabotropic glutamate receptor 1a (mGluR1a) were transfected to CHO cells, to obtain cells expressing mGluR1a in a stable manner. CHO cells which expressed mGluR1a were cultured in DMEM medium containing 10% dialysis fetal bovine serum, 1% proline, 100 units/ml of penicillin, 0.1 mg of streptomycin sulfate and […] glutamine.
4 μM of Fluo-3 was incubated to mGluR1a-expressing CHO cells plated with 50000 cells per 1 well of 96-well black plate (Packard, Viewplate) the day before the measurement, in a CO2 incubator for 1 hour. The cells were washed 4 times with HBSS solution containing 20 mM HEPES and 25 mM probenecid, and the intracellular calcium concentration was measured with the use of Fluorescence Imaging Plate Reader (FLIPR; Mollecular Device). The test compounds and glutamic acid were adjusted with HBSS solution containing 20 mM HEPES and 2.5 mM Probenecid. The test compounds were added 5 min before agonist stimulation, and 10 μM of glutamic acid was used as agonist.
The calcium increased with 10 μM of glutamic acid was suppressed dose-dependently.

[2] = system: male ICR(CD-1) mouse; assay: Suppression of mouse spontaneous movement level increased by methamphetamine; type: in vivo; conditions: po, 1 h, 3 mg/kg orally 30 min before 2 mg/kg methamphetamine, movement level during 60 min
Procedure: With the use of male ICR(CD-1) mouse (20-40 g), movement level was measured with the use of movement level-measuring device detecting animal migration by infrared radiation sensor (Neuroscience). Compounds or appropriate solvents were administered to mice, and after administrating normal saline solution or 2 mg/kg of methamphetamine 30 min later, the movement level during 60 min from after the administration was measured. By making the difference between the movement level of the methamphetamine-administered group and that of the solvents-administered group during measuring period as 100%, the movement level of test compound-administered group was shown by inhibition % for estimation.

[3] = system: rats; assay: Suppression of the reduction of prepulse inhibition (PPI) by methamphetamine; type: in vivo; conditions: orally 30 min before 3 mg/kg methamphetamine; rat startle reaction, 120 dB pulse with prepulse
Procedure: Systems tested for prepulse inhibition which can detect specifically antipsychotic effect were also investigated. By using startle reflex measuring device (San Diego Instruments) which can dectect movement of rats, startle reaction to 120 dB-sound stimulation (pulse stimulation) combined with 63, 66 and 72 dB-sound stimulation prior to pulse stimulation (prepulse) was measured in the presence of 60 dB-background sound. The compounds of the present invention or appropriate solvents were administered to rats, and normal saline solution or 3 mg/kg of methamphetamine was administered 30 min later, to measure startle reation. Startle reactions to pulse stimulation and to stimulation with prepulse were named A and B respectively, and the prepulse inhibition (herein referred to as PPI) level was calculated with the following formula. Calculating formula of PPI:PPI(%)=100×(A−B)/A
In contrast to startle reaction toward pulse stimulation, in the presence of preminary prepulse of 72 dB, startle reaction decreased by about 50% (prepulse inhibition). When pre-treating with methamphemine, strate reaction decreased only by about 20%, and decrease of prepulse inhibition was observed. Moreover, by administrating orally the compounds having mGluR1 antagonist effect 30 min before methamphetamine administration to the present models, decrease of prepulse inhibition by methamphetamine had tendance to recover.

`Cc1c(-c2ccc3nc(CC(C)(C)O)ccc3c2)nnn1-c1ccc(F)cc1` [Example 227] was tested, and the IC50 [1] was 2.4 nM, the inhibition in vivo at 3 mg/kg [2] was greater than 50% and the “Inhibition effect to PPI disorder” value [3] was “yes”.

In the case of `Cc1c(-c2ccc3c(=O)n(CC(C)(C)O)ccc3c2)nnn1-c1ccc(F)cc1` [Example 204, 4-(2-(2-hydroxy-2-methyl-propyl)-1-oxo-isoquinoline-6-yl)-1-(4-fluorophenyl)-5-methyl-1H-[1,2,3]triazole], the IC50 [1] is reported as 3.4 nM, the inhibition in vivo at 3 mg/kg [2] is reported as greater than 50% and the “Inhibition effect to PPI disorder” value [3] is reported as “yes”.

For `Cc1c(-c2ccc3c(c2)CN(C(C)C)C3=O)nnn1-c1cccnc1F` [Example 36, 4-(2-isopropyl-1-oxo-isoindoline-5-yl)-1-(2-fluoropyridine-3-yl)-5-methyl-1H-[1,2,3]triazole], the IC50 [1] was 6.5 nM, the inhibition in vivo at 3 mg/kg [2] was greater than 50% and the “Inhibition effect to PPI disorder” value [3] was “yes”.

`Cc1c(-c2ccc3c(c2)CN(C2CC2)C3=O)nnn1-c1ccccc1F` [Example 87, 4-(2-cyclopropyl-1-oxo-isoindoline-5-yl)-1-(2-fluorobenzene-3-yl)-5-methyl-1H-[1,2,3]triazole] was tested, and the IC50 [1] was 4.3 nM, the inhibition in vivo at 3 mg/kg [2] was greater than 50% and the “Inhibition effect to PPI disorder” value [3] was “yes”.

With `Cc1c(-c2ccc3c(c2)CN(C2CC2)C3=O)nnn1-c1cccnc1F` [Example 49, 4-(2-cyclopropyl-1-oxo-isoindoline-5-yl)-1-(2-fluoropyridine-3-yl)-5-methyl-1H-[1,2,3]triazole] the IC50 [1] was 3.2 nM, the inhibition in vivo at 3 mg/kg [2] was greater than 50% and the “Inhibition effect to PPI disorder” value [3] was “yes”.

In the case of `Cc1c(-c2ccc3c(c2)CN(CC(C)(C)O)C3=O)nnn1-c1ccc(F)cc1` [Example 181, 4-(2-(2-hydroxy-2-methyl-propyl)-1-oxo-isoindoline-5-yl)-1-(4-fluorophenyl)-5-methyl-1H-[1,2,3]triazole], the IC50 [1] is reported as 18 nM, the inhibition in vivo at 3 mg/kg [2] is reported as greater than 50% and the “Inhibition effect to PPI disorder” value [3] is reported as “yes”.

For `Cc1c(-c2ccc3c(c2)CN(CC(F)F)C3=O)nnn1-c1ccc(F)cc1` [Example 151, 4-(2-(2,2-difluoroethyl)-1-oxo-isoindoline-5-yl)-1-(4-fluorophenyl)-5-methyl-1H-[1,2,3]triazole], the IC50 [1] was 2.5 nM, the inhibition in vivo at 3 mg/kg [2] was greater than 50% and the “Inhibition effect to PPI disorder” value [3] was “yes”.

For `Cc1c(-c2ccc3c(c2)CC2(CC2)C3=O)nnn1-c1cccnc1F` [Example 34, 1-(2-fluoropyridine-3-yl)-5-methyl-4-(1-oxoindane-2-spiro-1′-cyclopropyl-5-yl)-1H-[1,2,3]triazole], the IC50 [1] was 2.3 nM, the inhibition in vivo at 3 mg/kg [2] was greater than 50% and the “Inhibition effect to PPI disorder” value [3] was “yes”.

In the case of `CCCN1Cc2cc(-c3nnn(-c4cccnc4F)c3C)ccc2C1=O` [Example 85, 1-(2-fluoropyridine-3-yl)-5-methyl-4-(2-propyl-1-oxo-isoindoline-5-yl)-1H-[1,2,3]triazole], the IC50 [1] is reported as 4.4 nM, the inhibition in vivo at 3 mg/kg [2] is reported as greater than 50% and the “Inhibition effect to PPI disorder” value [3] is reported as “yes”.

`Cc1c(-c2ccc3c(c2)CN(C(C)C)C3=O)nnn1-c1ccc(F)cc1F` [Example 119, 4-(2-isopropyl-1-oxo-isoindoline-5-yl)-1-(2,4-difluorophenyl)-5-methyl-1H-[1,2,3]triazole] was tested, and the IC50 [1] was 4.3 nM, the inhibition in vivo at 3 mg/kg [2] was greater than 50% and the “Inhibition effect to PPI disorder” value [3] was “yes”.
